These results are taken from PMC3003753 (Journal of medicinal chemistry, 2010).

The target of one series is CCR5 (Homo sapiens, UniProt P51681). The series is described as follows: cAMP assay, U87CD4CCR5 cells stimulated with CCL5. In kind it is cell-based. To be noted: 150 ng/mL CCL5.
A short description of series [1]: Further preclinical studies of compound 5. In kind it is in vivo. To be noted: data not shown.
The test system of series [2] is carrageenan-induced mouse paw inflammation. The series can be described thus: Carrageenan-induced paw edema model. In kind it is in vivo. As to conditions: for Paw inflammation inhibition percentage: 10 mg/kg i.p. daily; for Paw inflammation suppression compared with 4: 10 mg/kg i.p. versus 4 at 300 µg/kg.
Series [3] addresses T1, CXCR4 (Homo sapiens, UniProt P61073). The series is described as follows: cAMP assay. In kind it is cell-based. A general note: Cyclic AMP is a second messenger, typically raised through Gs and lowered through Gi signalling.
Series [4] concerns the target T1, CXCR4. The series can be described thus: Ca2+ flux induced by CXCR4/CXCL12 interaction. As to conditions: Gq pathway; data not shown. In kind it is cell-based. A general note: Calcium flux is commonly read through the fluorescence of an indicator in the cells.
In series [5] the test system is CXCR4/CXCL12-mediated Matrigel invasion of MDA-MB-231 cells. The series is described as follows: Matrigel invasion assay, CXCL12 as chemoattractant. In kind it is cell-based. As to conditions: 10 nM compound, 200 ng/mL CXCL12, 0.01 µM.
The subject of a further series is Melanoma OMM2.3 cells. The series can be described thus: Uveal melanoma micrometastasis mouse model. In kind it is in vivo. As to conditions: for Number of hepatic micrometastases: control around 90.
Series [6] can be described thus: Blood clearance and bioavailability of 26 in mice. To be noted: mouse, in vivo.
The test system of series [7] is MDA-MB-231 cells in Matrigel plugs. The series is described as follows: In vivo tumor angiogenesis assay. Also noted: species or system mouse. To be noted: 300 µg/kg daily s.c., 10 days, nude mice.
Series [8] deals with bleomycin induced lung fibrosis. The series is described as follows: Bleomycin induced lung fibrosis model. In kind it is in vivo, mouse. As to conditions: 300 µg/kg i.p. daily, day 20 after bleomycin.

T1 sequence (P61073 whole entry): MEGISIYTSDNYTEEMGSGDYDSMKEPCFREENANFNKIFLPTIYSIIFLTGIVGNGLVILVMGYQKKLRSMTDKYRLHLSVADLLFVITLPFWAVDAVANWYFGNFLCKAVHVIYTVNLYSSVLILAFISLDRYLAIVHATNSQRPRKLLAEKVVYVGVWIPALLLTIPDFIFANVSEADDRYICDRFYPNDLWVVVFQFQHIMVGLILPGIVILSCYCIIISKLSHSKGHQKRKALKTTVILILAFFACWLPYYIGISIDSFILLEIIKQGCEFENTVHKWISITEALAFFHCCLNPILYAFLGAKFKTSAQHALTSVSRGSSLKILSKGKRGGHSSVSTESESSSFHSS
Chain of CCR5 (P51681 whole entry): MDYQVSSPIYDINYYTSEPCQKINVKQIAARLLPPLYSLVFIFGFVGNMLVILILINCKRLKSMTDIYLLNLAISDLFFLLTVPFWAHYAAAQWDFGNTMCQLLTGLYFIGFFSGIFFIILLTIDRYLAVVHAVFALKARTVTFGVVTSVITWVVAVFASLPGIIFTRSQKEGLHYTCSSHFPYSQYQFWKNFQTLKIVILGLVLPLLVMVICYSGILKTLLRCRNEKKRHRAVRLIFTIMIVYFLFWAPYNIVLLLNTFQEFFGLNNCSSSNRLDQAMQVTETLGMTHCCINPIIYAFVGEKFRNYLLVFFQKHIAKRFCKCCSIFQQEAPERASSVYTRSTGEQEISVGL

`c1ccc(NCc2ccc(CNc3ccccn3)cc2)nc1` [Compound 5, WZ811]: the “Effect on blocking CCL5 stimulating CCR5 (cAMP)” value (“Effect” below) at CCR5 was “no significant effect”. For the same compound, in series [1], the Bioavailability result is given as “poor bioavailability” and the In vivo efficacy entry is listed as “failed to exhibit any in vivo efficacy”.

On to `Fc1cccc(NCc2ccc(CNc3ncccn3)cc2)n1` [Compound 10e, N-(4-((6-fluoropyridin-2-ylamino)methyl)benzyl)pyrimidin-2-amine], for which the “Paw inflammation inhibition percentage” value in series [2] (C57BL/6J mice) is recorded as “more than 50%”. In series [2], the “Paw inflammation suppression compared with 4” value is on record as “comparable to 4”.

In the case of `Clc1cccc(NCc2ccc(CNc3ncccn3)cc2)n1` [Compound 10g, N-(4-((6-chloropyridin-2-ylamino)methyl)benzyl)pyrimidin-2-amine], in series [2] (C57BL/6J mice), the “Paw inflammation inhibition percentage” value was “more than 50%”. In addition, in series [2], the “Paw inflammation suppression compared with 4” value was “comparable to 4”.

For the compound `Fc1cnc(NCc2ccc(CNc3nccc(C(F)(F)F)n3)cc2)nc1` [Compound 21a, N-(4-((5-fluoropyrimidin-2-ylamino)methyl)benzyl)-4-(trifluoromethyl)pyrimidin-2-amine], the “Interrupting CXCL12/CXCR4-mediated cAMP modulation” value at CXCR4 [3] was “effective”. Moreover, the “Block of Ca2+ flux induced by CXCR4/CXCL12 interaction” value on CXCR4 [4] is given as “do not block”.

Consider `CSc1nccc(NCc2ccc(CNc3ncc(F)cn3)cc2)n1` [Compound 21b, 5-fluoro-N-(4-((2-(methylthio)pyrimidin-4-ylamino)methyl)benzyl)pyrimidin-2-amine], for which the “Invasion Inhibition 10nM” value in series [5] came to 62%. Besides, in series [2], the “Paw inflammation suppression compared with 4” value is given as “comparable to 4”.

Regarding `CCOCCN1CCN(C(=O)c2cnc(NCc3ccc(CNc4ncc(F)cn4)cc3)nc2C(F)(F)F)CC1` [Compound 21c, (4-(2-ethoxyethyl)piperazin-1-yl)(2-(4-((5-fluoropyrimidin-2-ylamino)methyl)benzylamino)-4-(trifluoromethyl)pyrimidin-5-yl)methanone], the “Effect” value on CCR5 is listed as “no significant effect”.

Broadly, the IC50 is the midpoint of a concentration-inhibition curve. A lower IC50 goes with greater potency. On to `Fc1cnc(Cl)nc1NCc1ccc(CNc2ccnc(NCCN3CCOCC3)n2)cc1` [Compound 26], for which the “Invasion Inhibition 10nM” value in [5] is on record as above 60%. Further, on CXCR4 [3], the IC50 is around 1 nM and the “Interrupting CXCL12/CXCR4-mediated cAMP modulation” value is given as “effective”. In addition, the “Effect” value at CCR5 is given as “no significant effect”. Further, the “Paw inflammation suppression compared with 4” value in [2] was “comparable to 4”. Besides, in the series on Melanoma OMM2.3 cells (10 mg/kg i.p. daily), the “Number of hepatic micrometastases” value was “around 40”. The “Block of Ca2+ flux induced by CXCR4/CXCL12 interaction” value at CXCR4 [4] was “do not block”. Further, the Oral bioavailability result in series [6] was “lack of oral bioavailability”.

For TN14003 [Compound 4], in series [2] (300 µg/kg i.p. daily, C57BL/6J mice), the Paw inflammation suppression entry is “about 50%”. For the same compound, the “Angiogenesis inhibition (hemoglobin content of Matrigel plugs)” value in series [7] is given as “about 70%”. Also, the Lung fibrosis inhibition in series [8] is 85%. Further, the “Decrease of hepatic micrometastases” value in the series on Melanoma OMM2.3 cells (300 µg/kg i.p. daily, nude mice) is given as “about 50%”. Further, the “Number of hepatic micrometastases” value in the series on Melanoma OMM2.3 cells (300 µg/kg i.p. daily) is “around 40”.
